Results as given in PMC4413526 (AIDS Research and Therapy, 2014).
Like-named read-outs stand apart in the source and are kept apart here. Marks after values point to notes of the source that are not given here.

Columns and labels:
[1] = tested on: HIV-1 protease and reverse transcriptase; assay: Development of resistance (genotype/phenotype testing, PhenoSense GT); conditions: two patients (one treatment-experienced, one treatment-naïve) receiving emtricitabine
[2] = tested on: plasma HIV-1 RNA (viral load); conditions: treatment-naïve patients in ARTEMIS, TLOVR, ITT analysis; cited from earlier work
[3] = tested on: HIV; conditions: cited from earlier work
[4] = tested on: CYP isozymes; conditions: cited from earlier work
[5] = HIV-1-infected patients; cited from earlier work
[6] = Population pharmacokinetics of darunavir (Bayesian feedback analysis); conditions: human, in vivo; for AUC(0-t): read-out: Population pharmacokinetic-derived AUC24h, mean (SD)
[7] = tested on: wild-type virus; conditions: cited from earlier work
[8] = Pharmacokinetic substudy (intensive sampling, non-compartmental analysis); conditions: steady state, plasma, substudy n = 60, darunavir 800 mg + cobicistat 150 mg once daily plus N[t]RTIs
Experimental: The pharmacokinetic substudy included intensive pharmacokinetic sampling over 24 hours and was performed in a subset of patients (target n =48 evaluable) at selected study sites.
For the whole study population, sparse blood samples for analysis of study drug plasma concentrations were collected over 24 hours at Weeks 2, 4, 8, 12, 16, 24, 36 and 48. For the pharmacokinetic substudy, plasma samples were collected predose, 1, 2, 3, 3.5, 4, 4.5, 5, 6, 8, 10, 12 and 24 hours post-dose at a visit between Weeks 2 and 8.
For the pharmacokinetic substudy, steady-state pharmacokinetic parameters (Cmax, Cmin and AUC24h) were obtained using non-compartmental analysis (WinNonlin® software version 6.2, Pharsight Corporation, Mountain View, CA, USA). The intensive pharmacokinetic substudy data was used to revise an existing 2-compartment population pharmacokinetic model with first-order absorption.

Nc1nc(=O)n([C@@H]2CS[C@H](CO)O2)cc1F [Emtricitabine, emtricitabine]
Phenotypic resistance associated with emerging M184V N[t]RTI RAM [1]: associated with phenotypic resistance

darunavir/ritonavir
Week 48 virologic response rate [2]: 84%

Nc1ccn([C@@H]2CS[C@H](CO)O2)c(=O)n1 [lamivudine]
Phenotypic resistance associated with emerging M184V N[t]RTI RAM [1]: associated with phenotypic resistance

CC(C)c1nc(CN(C)C(=O)N[C@@H](CCN2CCOCC2)C(=O)N[C@H](CC[C@H](Cc2ccccc2)NC(=O)OCc2cncs2)Cc2ccccc2)cs1 [Cobicistat, cobicistat]
Antiviral activity [3]: no antiviral activity | Induction of CYP isozymes [4]: does not induce CYP isozymes | AUCtau, historical data [5]: 8.3 µg·h/mL | Cmax, historical data [5]: 1100 ng/mL

CC(C)CN(C[C@@H](O)[C@H](Cc1ccccc1)NC(=O)O[C@H]1CO[C@H]2OCC[C@H]21)S(=O)(=O)c1ccc(N)cc1 [Darunavir, darunavir]
AUC(0-t) ([6]; 17 treatment-experienced patients, with cobicistat): 120 µg·h/mL | concentration at 0 h ([6]; 17 treatment-experienced patients, with cobicistat, read-out: Population pharmacokinetic-derived C0h, mean (SD)): 2920 ng/mL | AUC(0-t) ([6]; 281 treatment-naïve patients, with cobicistat): 101 µg·h/mL | concentration at 0 h ([6]; 281 treatment-naïve patients, with cobicistat, read-out: Population pharmacokinetic-derived C0h, mean (SD)): 2100 ng/mL | AUC(0-t) ([6]; Week 48, overall n = 298, with cobicistat): 102 µg·h/mL | concentration at 0 h ([6]; Week 48, overall n = 298, with cobicistat, read-out: Population pharmacokinetic-derived trough plasma concentration (C0h), mean (SD)): 2150 ng/mL | protein-binding adjusted 50% effective concentration [7]: 55 ng/mL | Ctau [mean (SD)] [8]: 1311 (969)* ng/ml
